Reference: patent US20050106635A1, “Compositions and methods for regulating thyroid hormone metabolism and cholesterol and lipid metabolism via the nuclear receptor car” (priority 2002, published 2005)

How the values were obtained:
[1] = system: mouse sulfotransferase genes; experiment: Effect of TCPOBOP on expression of the known mouse sulfotransferase genes (method not specified); type: in vivo; settings: mice, liver
Procedure: (§1) In these experiments, three mice were treated with 1 mg/kg TCPOBOP in 5% dimethyl sulfoxide (DMSO) and corn oil, intraperitoneally. Control mice (n—3) received vehicle alone. Each mouse received two injections at 24 hour intervals. Livers were harvested after the second injection. Thus, total treatment time was 28 hours. Total mRNA was isolated from the livers using the Trizol method and probes for hybridization to the Affymetrix chips were prepared from the total mRNA. Results were analyzed by Affymetrix microarray Suite version 4.0 software.
Since sulfotransferase activity is important in thyroid metabolism, the effect of TCPOBOP on expression of all of the known mouse sulfotransferase genes was examined. The sulfotransferase set examined included N-SULT, SULT-X1, SULT-X2, aryl sulfotransferase, phenyl sulfotransferase, hydroxysteroid sulfotransferase, SULT-B1, and SUTL1E1. Three of these eight sulfotransferase genes were induced by TCPOBOP. […] Sulfotransferase activity coupled with deiodinase type I activity caused an increased proportion of T4 to be converted to rT3 rather than T3.
The expression of several genes examined in the TCPOBOP study was also examined. Of the sulfotransferase genes, SULT-X1, N-SULT, SULT 1E1, SULT 1B1 and aryl sulfotransferase were examined.

[2] = system: T4; settings: rats; TCPOBOP at high doses; cited from earlier work
[3] = system: genes involved in hepatic thyroid hormone conjugation and transport; experiment: RTQ-PCR of thyroid hormone metabolism genes in liver of TCPOBOP-treated mice; type: in vivo, mouse; settings: 1 mg/kg i.p.
[4] = system: mouse liver genes differentially expressed in response to CAR activation; experiment: Affymetrix GeneChip analysis of mouse liver genes differentially expressed after TCPOBOP treatment; type: in vivo
Procedure: A global analysis of mouse liver genes differentially expressed in response to CAR activation was performed. Changes in mRNA steady state levels were assessed using AFFYMETRIX® chip technology. AFFYMETRIX® GeneChip murine genome assays (Mu11k set), representing greater than 13,000 full-length genes and EST clusters, were used. The primary sequence sources for this set were combined Unigene and TIGR databases. […] TCPOBOP is a potent and selective activator of mouse CAR and a useful chemical tool for in vivo differential gene expression studies.
as §1

[5] = system: mouse sulfotransferase genes; experiment: Northern blot analysis of sulfotransferase mRNAs in liver of TCPOBOP-treated mice; type: in vivo; settings: 1 mg/kg i.p.
[6] = mice, 1 mg/kg i.p., two injections, liver, 28 hours, Affymetrix chip data

For `Clc1cnc(Oc2ccc(Oc3ncc(Cl)cc3Cl)cc2)c(Cl)c1` [TCPOBOP, 1,4-bis-[2,-(3,5-dichloropyridyloxy)] benzene], the “SULT-1B1 mRNA induction” value [1] was “not induced”, the “SULT-1E1 mRNA induction” value [1] was “not induced” and the “aryl sulfotransferase mRNA induction” value [1] was “not induced”. The “circulating levels of T4” value [2] was “decreased circulating levels of T4”, the “glucuronidation of T4” value [2] was “increase in glucuronidation of T4” and the “expression of the basolateral transporter mrp3” value [3] was “increased the expression”. For the same compound, the “GST mu1-1 increase” value ([3]; RTQ-PCR) was 2.7 fold, the “GST mu5-5 increase” value ([3]; RTQ-PCR) was 4.7 fold and the “GST theta 1-1 increase” value ([3]; RTQ-PCR) was 2.7 fold. The GST-Y increase ([3]; RTQ-PCR) was 7.5 fold, the SULT-X2 increase ([3]; RTQ-PCR) was 30 fold and the “UDP-glucuronysyl transferase 1A1 increase” value ([3]; RTQ-PCR) was 1.6 fold. The “number of genes (of more than 13,000) displaying a 2-fold or greater change in expression” value ([4]; mice, 1 mg/kg i.p., two injections at 24 hour intervals, liver, total treatment time 28 hours) was 264 genes, the “CYP2B10 mRNA upregulation in expression” value [4, 6] was 40 fold and the “CYP3A1 mRNA upregulation in expression” value [4, 6] was 20 fold. The “decrease in the gene encoding the Na+/K+ transporting ATPase” value [4, 6] was “greater than 2 fold”, the “activation of the CAR nuclear receptor” value ([4]; mouse liver, in vivo differential gene expression study) was “Selective and potent activation” and the N-SULT increase [5] was 11.5 fold. The SULT-X1 increase [5] was 10.0 fold.
